Data taken from BigSolDB 2.1.

NC(=O)OCCCc1ccccc1
solubility (mole fraction)
Conditions | 283.15 K | 288.15 K | 293.15 K | 298.15 K | 303.15 K | 308.15 K | 313.15 K | 318.15 K | 323.15 K
in 2-butanone | 0.0601 | 0.0718 | 0.0829 | 0.0993 | 0.117 | 0.131 | 0.147 | 0.164 | 0.187
in acetone | 0.0652 | 0.0775 | 0.0939 | 0.107 | 0.12 | 0.137 | 0.158 | 0.179 | 0.202
in ethanol | 0.0156 | 0.0178 | 0.0239 | 0.0307 | 0.0392 | 0.0493 | 0.0623 | 0.0808 | 0.1
in ethyl acetate | 0.0493 | 0.0567 | 0.0687 | 0.0803 | 0.0929 | 0.104 | 0.117 | 0.13 | 0.144
in isopropanol | 0.0108 | 0.0149 | 0.0207 | 0.0261 | 0.0339 | 0.0439 | 0.0587 | 0.0769 | 0.0904
in methanol | 0.0202 | 0.0247 | 0.0321 | 0.0396 | 0.0492 | 0.0614 | 0.0752 | 0.1 | 0.118
in methyl acetate | 0.0494 | 0.059 | 0.0719 | 0.0862 | 0.101 | 0.119 | 0.139 | 0.161 | 0.186
in n-butanol | 0.00704 | 0.012 | 0.0198 | 0.0279 | 0.0391 | 0.0492 | 0.0663 | 0.0824 | 0.0972
in n-pentanol | 0.0174 | 0.02 | 0.0239 | 0.031 | 0.0404 | 0.0523 | 0.0668 | 0.081 | 0.0946
in n-propanol | 0.0127 | 0.0155 | 0.0219 | 0.028 | 0.0349 | 0.045 | 0.0589 | 0.0771 | 0.0989
in sec-butanol | 0.0138 | 0.017 | 0.0226 | 0.0299 | 0.0405 | 0.0515 | 0.0679 | 0.092 | 0.118
in water | 8.1e-06 | 1.5e-05 | 3.19e-05 | 5.99e-05 | 0.000107 | 0.000165 | 0.000229 | 0.000293 | 0.000378
